Source: the supplement of paper PMC10307832

Assays:
Assay in all cases: relative viability (nuclei count vs DMSO), 5 days (fraction); higher = more cells survive
[1] = compound: COCC[n+]1c2c(n(Cc3cnccn3)c1C)C(=O)c1ccccc1C2=O [YM155] + C[C@@H](Oc1cc(-c2cnn(C3CCNCC3)c2)cnc1N)c1c(Cl)ccc(F)c1Cl [Crizotinib] (partner 1 µM)
Outline: (§1)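 For relative viability, nuclei counts in treated wells were divided by those in vehicle wells. Lung cancer cell lines had been pin-tool dosed in 1536-well plates the day after seeding and cultured for 5 days, then fixed and stained in one step (final 0.05% Triton X-100, 1% formaldehyde, 1 ug/ml Hoechst) and imaged at 4×. Doses were one drug alone or a fixed anchor-drug dose plus five library-drug doses (not always all listed) in √10 steps, and values are duplicate-plate medians.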

[2] = compound: COCC[n+]1c2c(n(Cc3cnccn3)c1C)C(=O)c1ccccc1C2=O [YM155] + Nc1ncn([C@H]2C[C@H](O)[C@@H](CO)O2)c(=O)n1 [Decitabine] (partner 2 µM)
Outline: as §1

[3] = compound: CC(C)(C)c1cc(NC(=O)Nc2ccc(-c3cn4c(n3)sc3cc(OCCN5CCOCC5)ccc34)cc2)no1 [Quizartinib] + CC(=O)c1c(C)c2cnc(Nc3ccc(N4CCNCC4)cn3)nc2n(C2CCCC2)c1=O [Palbociclib] (partner 0.5 µM)
Outline: as §1

[4] = compound: CC(C)(C)c1cc(NC(=O)Nc2ccc(-c3cn4c(n3)sc3cc(OCCN5CCOCC5)ccc34)cc2)no1 [Quizartinib] + NC(=O)Nc1cc(-c2cccc(F)c2)sc1C(=O)N[C@H]1CCCNC1 [AZD7762] (partner 0.2 µM)
Outline: as §1

Cell Line	relative viability ([1]; first compound 0.002 µM)	relative viability ([1]; first compound 0.006325 µM)	relative viability ([1]; first compound 0.02 µM)	relative viability ([1]; first compound 0.06325 µM)	relative viability ([2]; first compound 0.002 µM)	relative viability ([2]; first compound 0.006325 µM)	relative viability ([2]; first compound 0.02 µM)	relative viability ([2]; first compound 0.06325 µM)	relative viability ([3]; first compound 0.001 µM)	relative viability ([3]; first compound 0.003162 µM)	relative viability ([3]; first compound 0.01 µM)	relative viability ([3]; first compound 0.03162 µM)	relative viability ([3]; first compound 0.1 µM)	relative viability ([4]; first compound 0.001 µM)	relative viability ([4]; first compound 0.003162 µM)	relative viability ([4]; first compound 0.01 µM)	relative viability ([4]; first compound 0.03162 µM)	relative viability ([4]; first compound 0.1 µM)
IA-LM	0.825	0.766	0.685	0.548														
NCI-H661	1.01	0.942	1.05	0.798	0.516	0.516	0.533	0.47	0.369	0.348	0.391	0.384	0.339					
SW 900						0.431	0.399	0.458	0.507	0.547	0.63	0.541	0.558	0.711	0.498	0.597	0.532	0.58
COR-L23	0.649	0.569	0.403	0.105	0.439	0.315	0.317	0.169	0.236	0.269	0.34	0.244	0.244					
CAL-12T	0.608	0.696	0.551	0.409					0.362	0.404	0.607	0.348	0.0629	0.632	0.663	0.759	0.495	0.689
NCI-H520	0.755	0.725	0.835	0.66	0.469	0.531	0.531	0.397		0.257	0.251	0.196	0.175					
NCI-H1563	0.915	0.802	0.838	0.886														
EBC-1	0.186	0.193	0.206	0.202														
NCI-H522					0.72	0.664	0.684	0.668	0.898	0.995	1.01	1.34	0.977	0.849	0.775	0.675	0.871	0.778
NCI-H1703	0.612	0.13	0.459	0.175										0.155	0.143			0.134
NCI-H2342					0.729	0.709	0.788	0.717	0.482	0.538	0.483	0.615	0.462	0.505	0.637	0.471	0.544	0.518
SW 1573	0.767	0.877	0.902	0.581	0.369	0.461	0.243	0.136	0.367	0.367	0.493		0.434					
A549	0.717	0.592	0.654	0.142	0.413	0.215	0.29	0.24										
SK-MES-1	1.01	0.963	1.07	0.85	0.423	0.289	0.285	0.21	0.338	0.286	0.362	0.299	0.292					
NCI-H1650	0.924	0.974	0.717	0.286	0.382	0.384	0.452	0.203	0.386	0.329	0.345		0.321					
NCI-H1299	0.92	0.953	0.951	0.767														
SK-LU-1	0.871	0.931	1.11	0.805	0.57	0.695	0.63	0.506	0.366	0.361	0.443	0.381	0.388					
NCI-H1395					0.715	0.689	0.736	0.776	0.549	0.573	0.668	0.591	0.598	0.477	0.395	0.46	0.367	0.367
NCI-H2228	0.527	0.445	0.368	0.563					0.695	0.936	0.773	1.03	0.76					
NCI-H2023	0.719	0.734	0.717	0.361	0.224	0.201	0.193	0.184	0.298	0.312	0.467		0.279					
NCI-H1793					0.988	0.485	0.61	0.497	0.331	0.277	0.33	0.329	0.34	0.483	0.414	0.451	0.409	0.259
NCI-H596		0.965	0.997	0.974	0.886	1	1.02	1.04						1.12	1.07	1.02	1.04	1.32
Calu-6	0.728	0.776	0.349	0.135														
COR-L 105	0.907	0.807	0.591	0.385	0.552	0.671	0.519	0.442	0.395	0.397	0.396		0.418					
NCI-H2009	1.02	0.992	0.725	0.0795	0.342	0.383	0.362	0.36	0.202	0.237	0.273	0.191	0.226					
UMC-11	0.525	0.602	0.684	0.505	0.551	0.574	0.725	0.626		0.333	0.339	0.321	0.317					
